No end group written: not given here.
Columns and labels:
type Iα PKA holoenzyme = target: T1, type Iα PKA holoenzyme (Bos taurus, UniProt P00514); assay: High throughput FP assay format (TR-IP20, C-subunit, R-subunit, cGMP); format: binding; conditions: for HTS result (agonist / antagonist by FP reading versus 3 μM cGMP alone): tested at 25 μM, 40 nM TR-IP20; for reduction in FP signal due to competition with ATP: HTS format, compound at 200 μM, 2 mM ATP
T1 construct: made in house; host or cells: E. coli
Experimental: The high throughput screening (HTS) was performed by addition of 1 μL of a test compound in DMSO to 49 μL buffer containing TR-IP20, C-subunit, R-subunit, and cGMP.
An agonistic Z′-factor was calculated between the half maximal and maximal FP response, while the antagonistic Z′-factor was calculated between the minimal and half maximal FP response. The maximal FP response was calculated by adding 1 μL cGMP in DMSO (500 μM final) to 49 μL HTS mix. Half maximal binding was calculated when 1 μL DMSO was used instead and minimal FP response was calculated by adding 1 μL Rp-8-Br-cAMPS in DMSO (50 μM final). Final DMSO concentration was 2%.
Antagonism by Rp-8-Br-cAMPS was measured with the HTS format.
Finally, to validate the assay, screening was performed on a selection of nucleotide and xanthine derivatives. […] Included in Set 1 are the known PKA effectors 8-Cl-cAMP (agonist) and Rp-8-Br-cAMPS (antagonist).

PKA C-subunit = PKA C-subunit (Homo sapiens, UniProt P17612); conditions: cited from earlier work
[1] = target: C-subunit of protein kinase A (Mus musculus, UniProt P05132, C200A); assay: biochemical

T1 sequence (P00514 with tags, fused parts or gaps): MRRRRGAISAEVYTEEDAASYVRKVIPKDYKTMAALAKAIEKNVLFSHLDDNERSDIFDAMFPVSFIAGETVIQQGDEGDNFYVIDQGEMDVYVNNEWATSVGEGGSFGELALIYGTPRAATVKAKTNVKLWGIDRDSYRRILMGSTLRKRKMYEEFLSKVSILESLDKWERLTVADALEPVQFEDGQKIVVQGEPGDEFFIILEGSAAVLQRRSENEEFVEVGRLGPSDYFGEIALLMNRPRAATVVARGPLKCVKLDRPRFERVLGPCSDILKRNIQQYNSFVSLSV

| Compound | HTS result (agonist / antagonist by FP reading versus 3 μM cGMP alone) (type Iα PKA holoenzyme) | reduction in FP signal due to competition with ATP (type Iα PKA holoenzyme) | other results |
| --- | --- | --- | --- |
| Nc1ncnc2c1nc(Cl)n2[C@@H]1O[C@@H]2COP(=O)(O)O[C@H]2[C@H]1O [8-Cl-cAMP] | agonist |  |  |
| Nc1ncnc2c1ncn2[C@@H]1O[C@H](COP(=O)(O)OP(=O)(O)OP(=O)(O)O)[C@@H](O)[C@H]1O [ATP] |  |  | enhancement of the affinity of the C-subunit for ATP (PKA C-subunit; in the presence of the R-subunit or IP20, literature (Lew et al. 1997)): over 2000 fold; Kd (PKA C-subunit; read-out: affinity of ATP for the PKA C-subunit): ~25 µM |
| O=S(=O)(NCCNCC=Cc1ccc(Br)cc1)c1cccc2cnccc12 [H89, N-[2-(p-bromocinnamylamino)ethyl]-5-isoquinolinesulfonamide] |  | no reduction in FP signal |  |
| Nc1ncnc2c1nc(Br)n2C1OC2COP(O)(=S)OC2C1O (stereo not shown) [Rp-8-Br-cAMPS] | antagonist |  |  |
| CN[C@@H]1C[C@H]2O[C@@](C)([C@@H]1OC)n1c3ccccc3c3c4c(c5c6ccccc6n2c5c31)C(=O)NC4 [staurosporine] |  | no reduction in FP signal |  |
| GRTGRRNAIHD-NH2 [PKI (14-24)] |  |  | IC50 [1]: 2.7 µM |
